The test system of experiment [1] is human pleural mesothelioma cells NCI-H226. Kind of experiment: Cell anti-proliferation experiment (CCK8), NCI-H226. The class given is cell-based. The text has this: TEST EXAMPLE 1 CELL ANTI-PROLIFERATION EXPERIMENT
Determination of proliferation inhibition of YAP-TEAD inhibitor compounds on human pleural mesothelioma cells NCI-H226
Experimental materials and equipments: Human pleural mesothelioma cells NCI-H226 was purchased from NANJING COBIOER BIOSCIENCES CO., LTD. RPMI-1640 medium (Bio-Channel), DMSO (dimethyl sulfoxide), CCK8 (WST-8) Cell Assay Kit (Beyotime), 0.25% EDTA-Tripsin (trypsin digest), 1×PBS (phosphate buffer, PH7.2), 96-well plate (Corning), fetal bovine serum (FBS), 10,000 U/mL penicillin-G/streptomycin, high-speed freezing centrifuge (EPPENDORF 5810R), enzyme-linked immunosorbent assay (Tecan Spark).
1. Cell plating • A) Tumor cells were cultured to 80-90% density in RPMI-1640 (containing 10% FBS and 100 U/mL penicillin-G/streptomycin) under the condition of 37° C., 5% CO2 and saturated humidity. • B) The culture medium was removed from the 10 cm culture dish. • C) Cells were washed with 10 ml 1×PBS. • D) 4 ml of 0.25% EDTA-Tripsin was added to digest pancreatin for 5 minutes in an incubator at 37° C. and 5% CO2. Then the mixture was transferred to a 15 ml centrifuge tube, and centrifuged for 5 minutes at 200 g. The supernatant was discarded to obtain cell precipitation. • E) The cell precipitation was resuspended with 4 ml of […], counted and adjusted to 10,000 cells/ml. • F) The cell suspension was added to a 96-well plate with a volume of 100 μL per well and cultured overnight in an incubator at 37° C. and 5% CO2.
• Compound dilution • A) Preparation of gradient dilution solutions of the tested compounds: the tested compounds was configured to 1 mM stock solution. Then […] of stock solution was dissolved in 1.5 ml of DMSO-free culture solution, and then 3-fold continuous gradient dilution with 0.1% DMSO culture solution was performed to get a total of 9 concentrations. The diluted concentrations of the compound were as follows: 333.33 nM, 111.11 nM, 37.03 nM, 12.35 nM, 4.15 nM, 1.37 nM, 0.46 nM, 0.15 nM • B) After full mixing, 100 μL of culture compound solution was taken to replace the culture solution in the cell culture plate, with 4 duplicated wells at each concentration; • C) The cells were transferred to the incubator to incubate for 3 days.
• A) the cell culture plate was taken out and added with 10 μl of CCK-8 (WST-8) solution per well in the biosafety cabinet; • B) The cell culture plate was put back into the incubator and continued to incubate for 3 hours; • C) 450 nm wavelength was selected to measure absorbance value on TECAN enzyme linked immunosorbent assay detector.
The following formula was used to calculate the cell viability (% Cell Viability); • Cell Viability (%)=[A(Drug-added)-A(Blank)]/[A(0 Drug-added)-A(blank)][…] • A (Drug-added): The absorbance of wells containing cells, CCK8 solution, and drug solution. • A (Blank): The absorbance of wells containing culture medium and CCK8 solution, but without cells. • A (0 Drug-added): The absorbance of wells containing cells, CCK8 solution, but without drug solution. • Cell viability: Cell proliferation viability or cytotoxicity viability was determined by the IC50 value obtained by curve fitting using GraphPad Prism 8 software.

A further experiment concerns YAP-TEAD. Nature of the experiment: YAP-TEAD inhibitor activity by Nano luciferase method (8xGTiiC-nLuc reporter in 293T cells). In kind it is cell-based. The note with it: Homo sapiens, HEK-293T, 48 hours incubation, read-out: Nano-luciferase detection (IC50). From the text:
EXAMPLE 2: YAP-TEAD INHIBITOR ACTIVITY WAS DETECTED BY NANO LUCIFERASE METHOD
(1) Experimental materials and equipments: 293T cells were purchased from NANJING COBIOER BIOSCIENCES CO., LTD. DMEM medium (High sugar, no phenol red, Bio-Channel), DMSO (dimethyl sulfoxide), Lipo6000™ transfection reagent (Beyotime), pGL3B-8xGTiiC-nLuc-CMV-fLuc plasmid, 0.25% EDTA-Tripsin (trypsin digest), 1×PBS (phosphate buffer, PH7.2), 96-well white cell culture plate (PerkinElmer), fetal bovine serum (FBS), 10,000 U/mL penicillin-G/streptomycin, high-speed freezing centrifuge (EPPENDORF 5810R), 37° C. CO2 incubator, Vi-cell® Cell Counter, Envision Microplate Reader (PerkinElmer).
The revived 293T cells were inoculated into a 10 cm culture dish and placed in an incubator with 5% CO2, and cultured at constant temperature of 37° C. To ensure transfection efficiency, cells at logarithmic phase (cell density of approximately 50%-70%) should be used.
On the day before transfection, cells at the logarithmic phase were digested with Trypsin-EDTA, and culture medium was added to terminate digestion. The cell suspension was prepared by blowing and mixing using a pipette.
Cell concentration was measured using Vi-cell, and the cell suspension was diluted to a suspension of 5*10^^5 cells per milliliter. After preparing the cell suspension, the suspension was gently mixed. 10 ml of liquid was added to a 10 cm culture dish. In this way, the number of cells in each 10 cm culture dish was 5*10^^6. The cells were incubated at a constant temperature of 37° C. for 1 day in an incubator with 5% CO2.
Two clean and sterile centrifuge tubes were taken and added with 750 μL opti-MEM Medium without antibiotics and serum, respectively. Then one tube was added with 15 μg Plasmid (pGL3B-8xGTiiC-nLuc-CMV-fLuc), and gently blew and mixed well using a pipette; the other tube was added with Lipo6000 transfection reagent, and gently blew and mixed using a pipette. After standing at room temperature for 5 minutes, the culture solution containing DNA was added gently to the culture solution containing Lipo6000 transfection reagent, and mixed well by gently inverting the centrifuge tube, then standing at room temperature for 5 minutes.
The above mixture was added evenly to a 10 cm culture dish and replaced with fresh complete culture medium after 6 hours of cultivation.
After transfection for 1 day, cells were digested with Trypsin EDTA, and culture medium was added to terminate the digestion. The cell suspension was prepared by blowing and mixing using a pipette.
Cell concentration was measured using Vi-cell, and the cell suspension was diluted to a suspension of 20000 cells per milliliter.
After preparing the cell suspension, the suspension was gently mixed, and added to 96-well plate with 100 μL per well. Thus, the density of the cells to be tested is 2000 cells per well.
The inoculated cell culture plate was placed in the incubator for cultivation, and after about 24 hour, compounds with concentration gradient were added.
10 mM compound stock solution was diluted with culture medium to 50 μM. Compound solution of 50 μM was added to the third column of the deep well plate, 216 μL of culture medium containing 0.5% DMSO was added to the fourth to eleventh columns, successively.
Gradient dilution: taking 100 μL of solution from the third column and adding the solution to the fourth column and mixing well; then taking 100 µL of solution from the fourth column again and adding the solution to the fifth column, repeating this operation until the eleventh column.
Taking 25 μL of compound solution from the deep well plate and adding it to a 96-well culture plate using a multi-channel pipette. Repeating four times on the 96 well plate for each compound. Finally, a concentration gradient of 1:3.16 was formed in the 96-well plate with a maximum concentration of 10,000 nM. The • (5) Addition of Nano Luciferase Detection Reagent and Read […]

Molecules are shown by their SMILES. Bounds are passed on as bounds.

In the case of `Cn1cc2c(=O)n(-c3ccc(C(F)(F)F)cc3)c3ccc(C(=O)NC(C)(C)C)cc3c2n1` [Example T-101], the IC50 (in experiment [1]; with YAP-TEAD) was at most 1000 nM each time.
Consider `Cn1cc2c(=O)n(-c3ccc(C(F)(F)F)cc3)c3ccc(C(=O)NC4CC4)cc3c2n1` [Example T-102], for which the IC50 (in experiment [1]; in the experiment on YAP-TEAD) was at most 1000 nM each time.
Take `COCC(C)NC(=O)c1ccc2c(c1)c1nn(C)cc1c(=O)n2-c1ccc(C(F)(F)F)cc1` (stereo not shown) [Example T-107]: the IC50 (in experiment [1]; in the experiment on YAP-TEAD) was at most 1000 nM in each case.
In the case of `Cn1cc2c(=O)n(-c3ccc(C(F)(F)F)cc3)c3ccc(C(=O)O)cc3c2n1` [Example T-110], the IC50 (in experiment [1]; in the experiment with YAP-TEAD) was 1000 to 5000 nM in each case.
With `CNC(=O)c1ccc2c(c1)c1nn(C)cc1c(=O)n2-c1ccc(C(F)(F)F)cc1` [Example T-111], the IC50 (in experiment [1]; in the experiment on YAP-TEAD) was at most 1000 nM in each case.
With `Cn1cc2c(=O)n(-c3ccc(C(F)(F)F)cc3)c3ccc(C(=O)NCc4ccccn4)cc3c2n1` [Example T-113], the IC50 (in experiment [1]; in the experiment on YAP-TEAD) was at most 1000 nM throughout.
With `Cn1cc2c(=O)n(-c3ccc(C(F)(F)F)cc3)c3ccc(C(N)=O)cc3c2n1` [Example T-114], the IC50 in experiment [1] is at most 1000 nM; with YAP-TEAD, 1000 to 5000 nM.
For the compound `CN(C)Cc1cccc(NC(=O)c2ccc3c(c2)c2nn(C)cc2c(=O)n3-c2ccc(C(F)(F)F)cc2)c1` [Example T-115], the IC50 (in experiment [1]; with YAP-TEAD) was 1000 to 5000 nM in each case.
Turning to `CN(C)CCCNC(=O)c1ccc2c(c1)c1nn(C)cc1c(=O)n2-c1ccc(C(F)(F)F)cc1` [Example T-118], the IC50 (in experiment [1]; with YAP-TEAD) was 1000 to 5000 nM throughout.
On to `CNC[C@H](C)NC(=O)c1ccc2c(c1)c1nn(C)cc1c(=O)n2-c1ccc(C(F)(F)F)cc1` [Example T-120], for which the IC50 (in experiment [1]; in the experiment on YAP-TEAD) was 1000 to 5000 nM each time.
With `Cn1cc2c(=O)n(-c3ccc(C(F)(F)F)cc3)c3ccc(C(=O)Nc4c[nH]cn4)cc3c2n1` [Example T-121], the half-maximal inhibitory concentration (IC50) (in experiment [1]; with YAP-TEAD) was 1000 to 5000 nM throughout.
Turning to `C[C@H](NC(=O)c1ccc2c(c1)c1nn(C)cc1c(=O)n2-c1ccc(C(F)(F)F)cc1)c1ccc(C(F)(F)F)cn1` [Example T-123], the IC50 (in experiment [1]; with YAP-TEAD) was 1000 to 5000 nM in each case.
As for `Cc1ccc([C@H](C)NC(=O)c2ccc3c(c2)c2nn(C)cc2c(=O)n3-c2ccc(C(F)(F)F)cc2)nc1` [Example T-124], the 50% inhibitory concentration (IC50) (in experiment [1]; in the experiment on YAP-TEAD) was 1000 to 5000 nM in each case.
Turning to `C[C@@H](NC(=O)c1ccc2c(c1)c1nn(C)cc1c(=O)n2-c1ccc(C(F)(F)F)cc1)c1ncccc1F` [Example T-125], the IC50 (in experiment [1]; with YAP-TEAD) was 1000 to 5000 nM each time.
For the compound `C[C@H](NC(=O)c1ccc2c(c1)c1nn(C)cc1c(=O)n2-c1ccc(C(F)(F)F)cc1)c1ncccc1F` [Example T-126], the IC50 (in experiment [1]; with YAP-TEAD) was at most 1000 nM each time.
Consider `C[C@@H](NC(=O)c1ccc2c(c1)c1nn(C)cc1c(=O)n2-c1ccc(C(F)(F)F)cc1)c1ccc(F)cn1` [Example T-127], for which the IC50 (in experiment [1]; in the experiment on YAP-TEAD) was 1000 to 5000 nM in each case.
On to `C[C@H](NC(=O)c1ccc2c(c1)c1nn(C)cc1c(=O)n2-c1ccc(C(F)(F)F)cc1)c1cc(Cl)ccn1` [Example T-128], for which the IC50 (in experiment [1]; in the experiment with YAP-TEAD) was at most 1000 nM each time.
`C[C@H](NC(=O)c1ccc2c(c1)c1nn(C)cc1c(=O)n2-c1ccc(C(F)(F)F)cc1)c1ccc(Cl)cn1` [Example T-130]: the IC50 (in experiment [1]; with YAP-TEAD) was 1000 to 5000 nM throughout.
Regarding `C[C@H](NC(=O)c1ccc2c(c1)c1nn(C)cc1c(=O)n2-c1ccc(C(F)(F)F)cc1)c1cccc(Cl)n1` [Example T-132], the IC50 (in experiment [1]; in the experiment on YAP-TEAD) was 1000 to 5000 nM each time.
For the compound `Cn1cc2c(=O)n(-c3ccc(C(F)(F)F)cc3)c3ccc(C(=O)NCc4ccncn4)cc3c2n1` [Example T-133], the IC50 (in experiment [1]; with YAP-TEAD) was 1000 to 5000 nM in each case.
On to `COc1cccc([C@H](C)NC(=O)c2ccc3c(c2)c2nn(C)cc2c(=O)n3-c2ccc(C(F)(F)F)cc2)n1` [Example T-134], for which the IC50 (in experiment [1]; in the experiment with YAP-TEAD) was at most 1000 nM each time.
Consider `COc1cccnc1[C@@H](C)NC(=O)c1ccc2c(c1)c1nn(C)cc1c(=O)n2-c1ccc(C(F)(F)F)cc1` [Example T-135], for which the IC50 (in experiment [1]; in the experiment on YAP-TEAD) was 1000 to 5000 nM in each case.
Consider `COc1ccnc([C@@H](C)NC(=O)c2ccc3c(c2)c2nn(C)cc2c(=O)n3-c2ccc(C(F)(F)F)cc2)c1` [Example T-136], for which the IC50 (in experiment [1]; in the experiment with YAP-TEAD) was 1000 to 5000 nM in each case.
On to `C[C@H](NC(=O)c1ccc2c(c1)c1nn(C)cc1c(=O)n2-c1ccc(C(F)(F)F)cc1)c1ccccc1` [Example T-138], for which the IC50 (in experiment [1]; in the experiment on YAP-TEAD) was at most 1000 nM throughout.
As to `Cn1cc2c(=O)n(-c3ccc(C(F)(F)F)cc3)c3ccc(C(=O)NCc4ncccn4)cc3c2n1` [Example T-139], the IC50 (in experiment [1]; with YAP-TEAD) was 1000 to 5000 nM each time.
In the case of `Cn1cc2c(=O)n(-c3ccc(C(F)(F)F)cc3)c3ccc(C(=O)NCc4cnccn4)cc3c2n1` [Example T-140], the IC50 (in experiment [1]; in the experiment on YAP-TEAD) was 1000 to 5000 nM each time.

Usually IC50 stands for the midpoint of a concentration-inhibition curve.

These data come from US20250154105A1, “POLYCYCLIC COMPOUND AND USE THEREOF” (TYK MEDICINES, INC., priority 2021, published 2025).
